# Reference: US9067871B2, “Aminotetraline derivatives, pharmaceutical compositions containing them, and their use in therapy” (ABBVIE DEUTSCHLAND GMBH & CO KG, priority 2009, dated 2015)
# Counter-ions that a name gives are not always drawn.
# Biological target: human GlyT1c transporter (Homo sapiens (Human), UniProt P48067)
# Test: Radioligand binding assay using recombinant CHO cell membranes expressing human GlyT1
# Conditions: human GlyT1c-expressing CHO cell membranes; read-out: radioligand binding Kiapp
# Description: 2. Radioligand binding assays using recombinant CHO cell membranes expressing human GlyT1: […]
# Chain of human GlyT1c transporter (P48067 whole entry): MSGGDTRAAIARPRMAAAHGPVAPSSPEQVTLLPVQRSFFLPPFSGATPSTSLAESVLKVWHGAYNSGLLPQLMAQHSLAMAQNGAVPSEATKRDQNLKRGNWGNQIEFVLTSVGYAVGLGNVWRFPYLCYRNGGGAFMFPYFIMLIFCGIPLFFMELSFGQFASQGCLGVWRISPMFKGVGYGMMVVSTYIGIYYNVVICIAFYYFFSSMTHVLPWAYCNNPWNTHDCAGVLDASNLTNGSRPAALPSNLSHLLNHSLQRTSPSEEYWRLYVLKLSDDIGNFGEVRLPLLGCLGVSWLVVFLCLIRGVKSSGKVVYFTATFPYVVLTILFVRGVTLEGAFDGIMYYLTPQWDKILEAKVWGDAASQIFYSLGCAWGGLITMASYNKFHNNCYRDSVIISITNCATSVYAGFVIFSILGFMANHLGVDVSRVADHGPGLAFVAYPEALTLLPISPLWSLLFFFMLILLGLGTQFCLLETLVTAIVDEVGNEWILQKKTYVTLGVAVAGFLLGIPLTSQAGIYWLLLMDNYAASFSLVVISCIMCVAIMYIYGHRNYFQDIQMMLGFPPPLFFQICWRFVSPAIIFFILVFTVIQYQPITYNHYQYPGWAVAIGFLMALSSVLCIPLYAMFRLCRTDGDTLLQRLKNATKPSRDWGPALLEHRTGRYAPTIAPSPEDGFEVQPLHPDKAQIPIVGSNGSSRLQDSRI
row,Structure (SMILES),Ki [nM]
1,"CNC1CCc2ccc(CNS(=O)(=O)c3cccc(C)c3)cc2C1Cc1ccccc1 (stereo not shown) [Example 189, N-{[8-Benzyl-7-(methylamino)-5,6,7,8-tetrahydronaphthalen-2-yl]methyl}-3-methylbenzenesulfonamide hydrochloride]",≤ 10000
2,"NC1CCc2ccc(CCCNS(=O)(=O)CC3CC3)cc2C1Cc1ccc(Cl)cc1 (stereo not shown) [Example 202, N-{3-[7-Amino-8-(4-chlorobenzyl)-5,6,7,8-tetrahydronaphthalen-2-yl]propyl}-1-cyclopropylmethanesulfonamide hydrochloride]",≤ 100
3,"CCCS(=O)(=O)NCCc1ccc2c(c1)C(Cc1cccc(Cl)c1)C(N)CC2 (stereo not shown) [Example 304, Propane-1-sulfonic acid {2-[7-amino-8-(3-chloro-benzyl)-5,6,7,8-tetrahydro-naphthalen-2-yl]-ethyl}-amide hydrochloride]",≤ 1000
4,"NC1CCc2ccc(OCCNC(=O)c3ccccc3)cc2C1Cc1ccc(Cl)c(Cl)c1 (stereo not shown) [Example 123, N-(2-{[7-Amino-8-(3,4-dichlorobenzyl)-5,6,7,8-tetrahydronaphthalen-2-yl]oxy}ethyl)benzamide hydrochloride]",≤ 10000
5,"CCN(CC)C1CCc2ccc(CCCNS(=O)(=O)CC3CC3)cc2C1Cc1ccc(Cl)cc1 (stereo not shown) [Example 274, N-{3-[8-(4-Chlorobenzyl)-7-(diethylamino)-5,6,7,8-tetrahydronaphthalen-2-yl]propyl}-1-cyclopropylmethanesulfonamide hydrochloride]",≤ 100
6,"CNC1CCc2ccc(CNS(=O)(=O)C3CCC3)cc2C1Cc1ccccc1 (stereo not shown) [Example 188, N-{[8-Benzyl-7-(methylamino)-5,6,7,8-tetrahydronaphthalen-2-yl]methyl}cyclobutanesulfonamide hydrochloride]",≤ 100
7,"CCCS(=O)(=O)NCCCc1ccc2c(c1)C(Cc1cccc(F)c1)C(N)CC2 (stereo not shown) [Example 209, N-{3-[7-Amino-8-(3-fluorobenzyl)-5,6,7,8-tetrahydronaphthalen-2-yl]propyl}propane-1-sulfonamide hydrochloride]",≤ 100
8,"CNC1CCc2ccc(OCCNS(=O)(=O)CC3CC3)cc2C1Cc1cc(F)cc(Cl)c1 (stereo not shown) [Example 158, N-(2-{[8-(3-Chloro-5-fluorobenzyl)-7-(methylamino)-5,6,7,8-tetrahydronaphthalen-2-yl]oxy}ethyl)-1-cyclopropylmethanesulfonamide hydrochloride]",≤ 10
9,"CNC1CCc2ccc(OCCNS(=O)(=O)c3ccn(C)c3)cc2C1Cc1cc(F)cc(F)c1 (single isomer, unassigned; enantiomer 1) [Example 241, Enantiomer 1 of N-(2-{[8-(3,5-difluorobenzyl)-7-(methylamino)-5,6,7,8-tetrahydronaphthalen-2-yl]oxy}ethyl)-1-methyl-1H-pyrrole-3-sulfonamide hydrochloride]",≤ 100
10,"CNC1CCc2ccc(OCCNS(=O)(=O)CC3CC3)cc2C1Cc1cccc(Cl)c1 (stereo not shown) [Example 300, N-{2-[8-(3-Chloro-benzyl)-7-methylamino-5,6,7,8-tetrahydro-naphthalen-2-yloxy]-ethyl}-C-cyclopropyl-methanesulfonamide hydrochloride]",≤ 10
11,"CNC1CCc2ccc(OCCNS(=O)(=O)c3ccn(C)c3)cc2C1Cc1cc(F)cc(F)c1 (single isomer, unassigned; enantiomer 2) [Example 242, Enantiomer 2 of N-(2-{[8-(3,5-difluorobenzyl)-7-(methylamino)-5,6,7,8-tetrahydronaphthalen-2-yl]oxy}ethyl)-1-methyl-1H-pyrrole-3-sulfonamide hydrochloride]",≤ 10
12,"CCCS(=O)(=O)NCCCc1ccc2c(c1)C(Cc1cccc(Cl)c1)C(N)CC2 (stereo not shown) [Example 297, Propane-1-sulfonic acid {3-[7-amino-8-(3-chloro-benzyl)-5,6,7,8-tetrahydro-naphthalen-2-yl]-propyl}-amide hydrochloride]",≤ 100
13,"CCCS(=O)(=O)NCCCc1ccc2c(c1)C(Cc1ccc(F)c(F)c1)C(NCC)CC2 (stereo not shown) [Example 225, N-{3-[8-(3,4-Difluorobenzyl)-7-(ethylamino)-5,6,7,8-tetrahydronaphthalen-2-yl]propyl}propane-1-sulfonamide trifluoroacetate]",≤ 100

# Continued, values first:
row,Ki [nM],Structure (SMILES)
1,≤ 10,"Cn1cnc(S(=O)(=O)NCCOc2ccc3c(c2)C(Cc2ccccc2)C(N2CCC(F)C2)CC3)c1 (stereo not shown) [Example 152, N-[2-({8-Benzyl-7-[3-fluoropyrrolidin-1-yl]-5,6,7,8-tetrahydronaphthalen-2-yl}oxy)ethyl]-1-methyl-1H-imidazole-4-sulfonamide hydrochloride]"
2,≤ 10,"CN(CCOc1ccc2c(c1)C(Cc1ccc(Cl)cc1)C(N)CC2)S(=O)(=O)CC1CC1 (stereo not shown) [Example 129, N-(2-{[7-Amino-8-(4-chlorobenzyl)-5,6,7,8-tetrahydronaphthalen-2-yl]oxy}ethyl)-1-cyclopropyl-N-methylmethanesulfonamide hydrochloride]"
3,≤ 10,"Cn1cnc(S(=O)(=O)NCCOc2ccc3c(c2)C(Cc2cccc(C(F)(F)F)c2)C(N)CC3)c1 (stereo not shown) [Example 165, 1-Methyl-1H-imidazole-4-sulfonic acid {2-[7-amino-8-(3-trifluoromethyl-benzyl)-5,6,7,8-tetrahydro-naphthalen-2-yloxy]-ethyl}-amide hydrochloride]"
4,≤ 10,"Cn1cnc(S(=O)(=O)NCCOc2ccc3c(c2)C(Cc2ccccc2)C(N)CC3)c1 (single isomer, unassigned; enantiomer 1) [Example 238, Enantiomer 1 of N-(2-{[7-amino-8-benzyl-5,6,7,8-tetrahydronaphthalen-2-yl]oxy}ethyl)-1-methyl-1H-imidazole-4-sulfonamide hydrochloride]"
5,≤ 100,"CCCS(=O)(=O)N(C)Cc1ccc2c(c1)C(Cc1ccccc1)C(NC)CC2 (stereo not shown) [Example 275, N-{[8-Benzyl-7-(methylamino)-5,6,7,8-tetrahydronaphthalen-2-yl]methyl}-N-methylpropane-1-sulfonamide trifluoroacetate]"
6,≤ 10,"CNC1CCc2ccc(CNS(=O)(=O)C3CCC3)cc2C1Cc1ccccc1 (single isomer, unassigned; enantiomer 1) [Example 193, Enantiomer 1 of N-{[8-benzyl-7-(methylamino)-5,6,7,8-tetrahydronaphthalen-2-yl]methyl}cyclobutanesulfonamide hydrochloride]"
7,≤ 1000,"CCN(CCOc1ccc2c(c1)C(Cc1ccccc1)C(N1CCCC1)CC2)S(=O)(=O)c1cnn(C)c1 (stereo not shown) [Example 124, N-(2-{[8-Benzyl-7-(pyrrolidin-1-yl)-5,6,7,8-tetrahydronaphthalen-2-yl]oxy}ethyl)-N-ethyl-1-methyl-1H-pyrazole-4-sulfonamide hydrochloride]"
8,≤ 100,"Cn1cc(S(=O)(=O)NCc2ccc3c(c2)C(Cc2ccccc2)C(N)CC3)c(C(F)(F)F)n1 (stereo not shown) [Example 182, N-{[7-Amino-8-benzyl-5,6,7,8-tetrahydronaphthalen-2-yl]methyl}-1-methyl-3-(trifluoromethyl)-1H-pyrazole-4-sulfonamide hydrochloride]"
9,≤ 1000,"CNC1CCc2ccc(CNS(=O)(=O)c3ccn(C)n3)cc2C1Cc1ccccc1 (stereo not shown) [Example 191, N-{[8-Benzyl-7-(methylamino)-5,6,7,8-tetrahydronaphthalen-2-yl]methyl}-1-methyl-1H-pyrazole-3-sulfonamide hydrochloride]"
10,≤ 10,"Cn1cnc(S(=O)(=O)NCCOc2ccc3c(c2)C(Cc2cccc(Cl)c2)C(N2CCC2)CC3)c1 (stereo not shown) [Example 321, 1-Methyl-1H-imidazole-4-sulfonic acid {2-[7-azetidin-1-yl-8-(3-chloro-benzyl)-5,6,7,8-tetrahydro-naphthalen-2-yloxy]-ethyl}-amide hydrochloride]"
11,≤ 100,"CCCS(=O)(=O)NCCOc1ccc2c(c1)C(Cc1cccc(F)c1)C(N)CC2 (stereo not shown) [Example 107, Propane-1-sulfonic acid {2-[7-amino-8-(3-fluoro-benzyl)-5,6,7,8-tetrahydro-naphthalen-2-yloxy]-ethyl}-amide hydrochloride]"
12,≤ 100,"Cn1cc(S(=O)(=O)NCc2ccc3c(c2)C(Cc2ccccc2)C(N2CCOCC2)CC3)cn1 (stereo not shown) [Example 258, N-{[8-Benzyl-7-(morpholin-4-yl)-5,6,7,8-tetrahydronaphthalen-2-yl]methyl}-1-methyl-1H-pyrazole-4-sulfonamide]"
13,≤ 10,"Cn1cc(S(=O)(=O)NCCOc2ccc3c(c2)C(Cc2cccc(Cl)c2)C(N2CCCC2)CC3)cn1 (stereo not shown) [Example 318, 1-Methyl-1H-pyrazole-4-sulfonic acid {2-[8-(3-chloro-benzyl)-7-pyrrolidin-1-yl-5,6,7,8-tetrahydro-naphthalen-2-yloxy]-ethyl}-amide hydrochloride]"
14,≤ 10,"O=S(=O)(CC1CC1)NCCOc1ccc2c(c1)C(Cc1ccccc1)C(N1CCC1)CC2 (single isomer, unassigned; (-)) [Example 143, (−)-N-(2-(7-(azetidin-1-yl)-8-benzyl-5,6,7,8-tetrahydronaphthalen-2-yloxy)ethyl)-1-cyclopropylmethanesulfonamide]"
15,≤ 100,"Cn1ccc(S(=O)(=O)NCCOc2ccc3c(c2)C(Cc2cccc(F)c2)C(N2CCCC2)CC3)c1 (stereo not shown) [Example 149, N-(2-{[8-(3-Fluorobenzyl)-7-(pyrrolidin-1-yl)-5,6,7,8-tetrahydronaphthalen-2-yl]oxy}ethyl)-1-methyl-1H-pyrrole-3-sulfonamide hydrochloride]"
16,≤ 100,"NC1CCc2ccc(CNS(=O)(=O)c3cccnc3)cc2C1Cc1ccccc1 (stereo not shown) [Example 181, N-{[7-Amino-8-benzyl-5,6,7,8-tetrahydronaphthalen-2-yl]methyl}pyridine-3-sulfonamide dihydrochloride]"
17,≤ 1000,"O=S(=O)(CC1CC1)NCCCc1ccc2c(c1)C(Cc1ccccc1)C(N1CCCC1)CC2 (stereo not shown) [Example 266, N-{3-[8-Benzyl-7-(pyrrolidin-1-yl)-5,6,7,8-tetrahydronaphthalen-2-yl]propyl}-1-cyclopropylmethanesulfonamide hydrochloride]"

# Same assay, conditions: read-out: radioligand binding Kiapp
row,Structure (SMILES),Ki [nM]
1,CCCS(=O)(=O)N(CCOc1ccc2c(c1)C(Cc1cccc(Cl)c1)C(NC(=O)OCC)CC2)C1CC1 (stereo not shown) [Example 279],≤ 10000
